# Data as given in article PMC6494957 (Frontiers in Microbiology, 2019).
# Assays:
# HaCaT cell line = assay: In vitro cytotoxicity, WST-1; type: cell-based; details: Homo sapiens, 10% FBS, read-out: IC50, single agent
# Description: Cells were maintained in Dulbecco’s modified Eagle’s medium (DMEM) with 10% fetal bovine serum (FBS) and 1% PenStrep (100 U/mL Penicillin and 100 μg/mL Streptomycin) at 37°C with 5% CO2. Cells were serially passaged at ∼80% confluence ∼ every 4 days. Assays were performed in duplicate in 96 well plates seeded with ∼25,000 cells per well. […] Briefly, the antimicrobials were prepared by performing a twofold serial dilution at 100× of tested concentration in DMSO. Subsequently, a 1 μl aliquot of each concentration was transferred to a sterile 96-well plate containing fresh DMEM with either 10% FBS. After mixing four times, the media aliquots with different concentrations of antimicrobial were transferred to each well of the 96-well plate seeded with cells, using wells containing 1–2% DMSO only as control. To determine the effect of FBS on the cytotoxicity of each compound, DMEM with 40% FBS containing different concentrations of antimicrobial was prepared as described above. After 24 h of exposure, WST-1 reagent (Cell Proliferation Assay reagent, Roche) at a concentration of 10% was added to each well. Absorbance at A450 nm on a Multiskan Ascent 354 Spectrophotometer (Labsystems) was measured after 1 h of incubation. The IC50 value was determined for each compound against each cell line via non-linear regression (three parameters) using GraphPad Prism v6 software.
# P. mirabilis ATCC 43071 = assay: microbe, parasite or virus in culture
# Description: (§1) The MIC for ampicillin or gentamicin against each isolate was determined for each test to serve as an internal quality control. The MICs of isolates were determined by visual reading and using an EnSpire Multimode Plate Reader 2300 atA600nm.
# (§2) Briefly, antimicrobial stock solutions for robenidine and PMBN were prepared at a concentration of 12.8 mg/ml in DMSO. […] A 1 μl aliquot of the first compound from each combination was dispensed along the abscissa (from row A to G) of the 96-well microplate, while the second compound was dispensed along the ordinate (from column 12 to column 3) using an electronic multichannel pipette followed by 89 μl of LB broth. Each well of the plate was inoculated with an aliquot of 10 μl bacterial suspension at a concentration of 1-5 × 10^6 colony forming units (CFU) per ml. Subsequently, the plate was incubated at 37°C for 24 h. The fractional inhibitory concentration index (FICI) described the results of the combinations, and was calculated utilizing the following formula:
# (§3) DRI = MIC of drug alone/MIC of drug in combination
# K. pneumoniae ATCC 13883 = assay: microbe, parasite or virus in culture
# Description: as §1, §2, §3
# P. putida ATCC 17428 = assay: microbe, parasite or virus in culture
# Description: as §1, §2, §3
# A. baumannii ATCC 19606 = assay: microbe, parasite or virus in culture
# Description: as §1, §2, §3
# E. coli ATCC 25922 = assay: microbe, parasite or virus in culture
# Description: as §1, §2, §3
# [1] = test system: A. calcoaceticus (human clinical isolate); assay: microbe, parasite or virus in culture
# Description: as §1, §2, §3
# A. baumannii ATCC 12457 = assay: microbe, parasite or virus in culture
# Description: as §1, §2, §3
# E. coli ATCC 11229 = assay: microbe, parasite or virus in culture
# Description: as §1, §2, §3
# P. aeruginosa ATCC 27853 = assay: microbe, parasite or virus in culture
# Description: as §1, §2, §3
# [2] = K. pneumoniae ATCC 13883, concentration of the labelled component
# [3] = P. putida ATCC 17428, concentration of the labelled component
# [4] = A. baumannii ATCC 19606, concentration of the labelled component
# [5] = E. coli ATCC 25922, concentration of the labelled component
# [6] = A. calcoaceticus human clinical isolate, concentration of the labelled component
# [7] = A. baumannii ATCC 12457, concentration of the labelled component
# [8] = E. coli ATCC 11229, concentration of the labelled component
# [9] = P. aeruginosa ATCC 27853, concentration of the labelled component
structure (smiles),measurement,setting,value
"N=C(N/N=C/c1ccc(Cl)cc1)N/N=C/c1ccc(Cl)cc1 [ROB, robenidine]",IC50,HaCaT cell line,14 µg/mL
same,"MIC, single drug",P. mirabilis ATCC 43071; P. mirabilis ATCC 43071,>256 µg/mL
same,DRI EDTA:ROB,"P. mirabilis ATCC 43071; P. mirabilis ATCC 43071, DRI of the labelled component",256
same,MIC in combination EDTA:ROB,"P. mirabilis ATCC 43071; P. mirabilis ATCC 43071, concentration of the labelled component",1.25 µg/mL
same,MIC,"P. mirabilis ATCC 43071; Proteus mirabilis, ATCC43071, read-out: MIC, single drug",> 256 µg/mL
same,"MIC, single drug",K. pneumoniae ATCC 13883; K. pneumoniae ATCC 13883,>256 µg/mL
same,DRI EDTA:ROB,"K. pneumoniae ATCC 13883; K. pneumoniae ATCC 13883, DRI of the labelled component",2
same,MIC in combination EDTA:ROB,K. pneumoniae ATCC 13883; [2],128 µg/mL
same,MIC in combination PMBN:ROB,K. pneumoniae ATCC 13883; [2],4 µg/mL
same,MIC,"K. pneumoniae ATCC 13883; Klebsiella pneumoniae, ATCC13883, read-out: MIC, single drug",> 256 µg/mL
same,DRI EDTA:ROB,"P. putida ATCC 17428; P. putida ATCC 17428, DRI of the labelled component",256
same,MIC in combination EDTA:ROB,P. putida ATCC 17428; [3],1.25 µg/mL
same,MIC in combination PMBN:ROB,P. putida ATCC 17428; [3],1:1 μg/ml
same,MIC,"P. putida ATCC 17428; Pseudomonas putida, ATCC17428, read-out: MIC, single drug",> 256 µg/mL
same,DRI EDTA:ROB,"A. baumannii ATCC 19606; A. baumannii ATCC 19606, DRI of the labelled component",8
same,MIC in combination EDTA:ROB,A. baumannii ATCC 19606; [4],4 µg/mL
same,MIC in combination PMBN:ROB,A. baumannii ATCC 19606; [4],2 µg/mL
same,MIC,"A. baumannii ATCC 19606; Acinetobacter baumannii, ATCC19606, read-out: MIC, single drug",32 µg/mL
same,"MIC, single drug",E. coli ATCC 25922; E. coli ATCC 25922,>256 µg/mL
same,DRI EDTA:ROB,"E. coli ATCC 25922; E. coli ATCC 25922, DRI of the labelled component",64
same,MIC in combination EDTA:ROB,E. coli ATCC 25922; [5],4 µg/mL
same,MIC in combination PMBN:ROB,E. coli ATCC 25922; [5],8 µg/mL
same,MIC,"E. coli ATCC 25922; Escherichia coli, ATCC25922, read-out: MIC, single drug",> 256 µg/mL
same,DRI EDTA:ROB,"[1]; A. calcoaceticus human clinical isolate, DRI of the labelled component",32
same,MIC in combination EDTA:ROB,[1]; [6],0.125 µg/mL
same,MIC in combination PMBN:ROB,[1]; [6],0.5 µg/mL
same,MIC,"[1]; Acinetobacter calcoaceticus, read-out: MIC, single drug",4 µg/mL
same,DRI EDTA:ROB,"A. baumannii ATCC 12457; A. baumannii ATCC 12457, DRI of the labelled component",32
same,MIC in combination EDTA:ROB,A. baumannii ATCC 12457; [7],2 µg/mL
same,MIC in combination PMBN:ROB,A. baumannii ATCC 12457; [7],2 µg/mL
same,MIC,"A. baumannii ATCC 12457; Acinetobacter baumannii, ATCC12457, read-out: MIC, single drug",64 µg/mL
same,"MIC, single drug",E. coli ATCC 11229; E. coli ATCC 11229,>256 µg/mL
same,DRI EDTA:ROB,"E. coli ATCC 11229; E. coli ATCC 11229, DRI of the labelled component",32
same,MIC in combination EDTA:ROB,E. coli ATCC 11229; [8],8 µg/mL
same,MIC in combination PMBN:ROB,E. coli ATCC 11229; [8],8 µg/mL
same,MIC,"E. coli ATCC 11229; Escherichia coli, ATCC11229, read-out: MIC, single drug",> 256 µg/mL
same,"MIC, single drug",P. aeruginosa ATCC 27853; P. aeruginosa ATCC 27853,>256 µg/mL
same,DRI EDTA:ROB,"P. aeruginosa ATCC 27853; P. aeruginosa ATCC 27853, DRI of the labelled component",256
same,MIC in combination EDTA:ROB,P. aeruginosa ATCC 27853; [9],1.25 µg/mL
same,MIC in combination PMBN:ROB,P. aeruginosa ATCC 27853; [9],1 µg/mL
same,MIC,"P. aeruginosa ATCC 27853; Pseudomonas aeruginosa, ATCC27853, read-out: MIC, single drug",> 256 µg/mL
